System: Two-spotted spider mite (Tetranychus urticae)
Assay: Acaricidal action on two-spotted spider mite (kidney bean leaf disk spray)
Type: in vivo
Conditions: 500 ppm, adult females, 25° C., two days after treatment
Experimental: Acaricidal Action on Two-Spotted Spider Mite (Tetranychus urticae)
Leaf disk having a diameter of 2 cm was prepared by leaves of kidney bean, and the leaf disk was placed on the wetted filter paper. Adult hens of two-spotted spider mite were inoculated on the wetted filter paper, and then 50 ml of an agrochemical dispersion, prepared by diluting a formulation containing the benzimidazole compound represented by the general formula (1) of the present invention or salt thereof as an active ingredient to adjust each of the concentrations to 500 ppm, was sprayed on turntable uniformly. After the spraying, it was allowed to stand in a thermostatic chamber at 25° C. Two days after the treatment of an agrochemical dispersion, the dead mites were counted, the corrected mortality rate was calculated according to the formula shown below, and the acaricidal efficacy was evaluated according to the criteria of Test Example 2. This test was conducted in duplicate using 10 adult hens of two-spotted spider per plot. Corrected mortality(%)=(Number of dead mites in a non-treatment plot−Number of dead mites in a treatment plot)/(Number of dead mites in a non-treatment plot)×100 [Expression 4]

| Compound | acaricidal efficacy (corrected mortality rate), activity level |
| --- | --- |
| CCCCCc1nn(-c2nc3ccccc3n2S(=O)(=O)CC)cc1C(=O)OC(C)(C)C [Compound 2-85] | D or higher |
| CCS(=O)(=O)n1c(-n2cc(C#Cc3ccccn3)c(C(F)(F)F)n2)nc2ccccc21 [Compound 2-118] | D or higher |
| CCS(=O)(=O)n1c(-n2cc(C(=O)OC(C)(C)C)c(I)n2)nc2ccccc21 [Compound 2-82] | D or higher |
| CCS(=O)(=O)n1c(-n2cc(/C=C/C(=O)OC(C)(C)C)c(C(=O)OC(C)(C)C)n2)nc2ccccc21 [Compound 2-130] | D or higher |
| CCS(=O)(=O)n1c(-n2ccc(C(=O)OC(C)(C)C)c2)nc2ccccc21 [Compound 7-1] | D or higher |
| CCS(=O)(=O)n1c(-n2cc(I)c(C(F)(F)F)n2)nc2ccccc21 [Compound 2-16] | D or higher |
| CCS(=O)(=O)n1c(-n2cc(S(=O)(=O)C(C)C)c(C(F)(F)F)n2)nc2ccccc21 [Compound 2-56] | D or higher |
| CCS(=O)(=O)n1c(-n2cc(Br)c(OC(F)F)n2)nc2ccccc21 [Compound 2-42] | D or higher |
| CCS(=O)(=O)n1c(-n2cc(SCc3ccc(C(C)(C)C)cc3)c(C(F)(F)F)n2)nc2ccccc21 [Compound 2-121] | D or higher |
| CCS(=O)(=O)n1c(-n2cc(C(=O)OC(C)(C)C)c(/C=C/C3CC3)n2)nc2ccccc21 [Compound 2-83] | D or higher |
| CCS(=O)(=O)n1c(-n2cc(C(=O)SC(C)(C)C)c(C(F)(F)F)n2)nc2ccccc21 [Compound 2-31] | D or higher |
| CCS(=O)(=O)n1c(-n2cc(C(=O)NC(C)(C)C)c(C(C)(C)C)n2)nc2ccccc21 [Compound 2-97] | D or higher |
| CCS(=O)(=O)n1c(-n2cc(C(=O)OC(C)(C)C)c(Br)n2)nc2ccccc21 [Compound 2-48] | D or higher |
| CCS(=O)(=O)n1c(-n2cc(Br)c(C(=O)OC(C)(C)C)n2)nc2ccccc21 [Compound 2-45] | D or higher |
| CCS(=O)(=O)n1c(-n2cc(C(=O)OC(C(F)(F)F)C(F)(F)F)cn2)nc2ccccc21 [Compound 2-93] | D or higher |
| CCS(=O)(=O)n1c(-n2cc(CCC(=O)OC(C)(C)C)c(C(=O)OC(C)(C)C)n2)nc2ccccc21 [Compound 2-135] | D or higher |
| CCS(=O)(=O)n1c(-n2cc(CCc3ccccc3)c(C#N)n2)nc2ccccc21 [Compound 2-109] | D or higher |
| CCS(=O)(=O)n1c(-n2cc(C(=O)CC(C)C)c(CC(C)C)n2)nc2ccccc21 [Compound 2-142] | D or higher |
| CCS(=O)(=O)n1c(-n2cc(I)c(Br)n2)nc2ccccc21 [Compound 2-35] | D or higher |

| Compound | acaricidal efficacy (corrected mortality rate), activity level |
| --- | --- |
| CCS(=O)(=O)n1c(-n2ccc(OCCCC(=O)OC(C)(C)C)n2)nc2ccccc21 [Compound 2-103] | D or higher |
| CCS(=O)(=O)n1c(-n2cc(C#Cc3ccccc3)c(OCC(F)(F)F)n2)nc2ccccc21 [Compound 2-100] | D or higher |
| CCS(=O)(=O)n1c(-n2cc(C#CCOC(=O)C(C)(C)C)c(C(F)(F)F)n2)nc2ccccc21 [Compound 2-132] | D or higher |
| CCS(=O)(=O)n1c(-n2cc(C#CCOC)c(C(F)(F)F)n2)nc2ccccc21 [Compound 2-128] | D or higher |
| CCS(=O)(=O)n1c(-n2cc(C(=O)OC(C)(C)C)c(/C=C/C(=O)OC(C)(C)C)n2)nc2ccccc21 [Compound 2-144] | D or higher |
| CCS(=O)(=O)n1c(-n2cc(/C=C/C(=O)OC(C(F)(F)F)C(F)(F)F)c(C(F)(F)F)n2)nc2ccccc21 [Compound 2-112] | D or higher |
| CCS(=O)(=O)n1c(-n2cc(CCC3CC3)c(C(F)(F)F)n2)nc2ccccc21 [Compound 2-126] | D or higher |
| CCS(=O)(=O)n1c(-n2cc(C(C)=O)c(C(F)(F)F)n2)nc2ccccc21 [Compound 2-25] | D or higher |
| CCS(=O)(=O)n1c(-n2cc(C3CC3)c(C(=O)OC(C)(C)C)n2)nc2ccccc21 [Compound 2-105] | D or higher |
| CCS(=O)(=O)n1c(-n2cc(C#CC(C)(C)C)c(C(=O)OC(C)(C)C)n2)nc2ccccc21 [Compound 2-133] | D or higher |
| CCS(=O)(=O)n1c(-n2cc(Cl)c(C(=O)OC(C)(C)C)n2)nc2ccccc21 [Compound 2-44] | D or higher |
| CCOC(=O)c1cn(-c2nc3ccccc3n2S(=O)(=O)CC)nc1C(F)F [Compound 2-33] | D or higher |
| CCS(=O)(=O)n1c(-n2cc(SCC(F)(F)C(F)(F)F)cn2)nc2ccccc21 [Compound 2-141] | D or higher |
| CCS(=O)(=O)n1c(-n2cc(C(=O)CC(C)(C)C)c(CC(C)(C)C)n2)nc2ccccc21 [Compound 2-131] | D or higher |
| CCS(=O)(=O)n1c(-n2cc(I)c(C(=O)OC(C)(C)C)n2)nc2ccccc21 [Compound 2-104] | D or higher |
| CCS(=O)(=O)n1c(-n2cc(Br)c(C(F)(F)F)n2)nc2ccccc21 [Compound 2-14] | D or higher |
| CCS(=O)(=O)n1c(-n2cc(C(=O)OC(C)(C)C)c(C(C)C)n2)nc2ccccc21 [Compound 2-57] | D or higher |
| CCS(=O)(=O)n1c(-n2cnc(C(=O)OC(C)(C)C)c2)nc2ccccc21 [Compound 1-33] | D or higher |
| CCS(=O)(=O)n1c(-n2cc(C(=O)OC(C)(C)C)c(C=C(C)C)n2)nc2ccccc21 [Compound 2-86] | D or higher |

| Compound | acaricidal efficacy (corrected mortality rate), activity level |
| --- | --- |
| CCS(=O)(=O)n1c(-n2cc(C(=O)OC)c(C(C)(C)C)n2)nc2ccccc21 [Compound 2-79] | D or higher |
| CCS(=O)(=O)n1c(-n2cnc(C#Cc3ccccc3)c2)nc2ccccc21 [Compound 1-18] | D or higher |
| CCS(=O)(=O)n1c(-n2cc(C(=O)NCC(F)(F)F)c(C(C)(C)C)n2)nc2ccccc21 [Compound 2-94] | D or higher |
| CCS(=O)(=O)n1c(-n2cc(C(=O)OC(C)(C)C)c(C3CC3)n2)nc2ccccc21 [Compound 2-50] | D or higher |
| CCS(=O)(=O)n1c(-n2cc(CCC(=O)OC(C)(C)C)c(C(F)(F)F)n2)nc2ccccc21 [Compound 2-61] | D or higher |
| CCOC(=O)c1cn(-c2nc3ccccc3n2S(=O)(=O)CC)nc1OCC(F)(F)C(F)(F)F [Compound 2-41] | D or higher |
| CCS(=O)(=O)n1c(-n2cnc(C(F)(F)F)c2)nc2ccccc21 [Compound 1-21] | D or higher |
| CCCCCCCCc1cnn(-c2nc3ccccc3n2S(=O)(=O)CC)c1 [Compound 2-2] | D or higher |
| CCS(=O)(=O)n1c(-n2cc(C(=O)OC(C)(C)C)c(CCc3ccccc3)n2)nc2ccccc21 [Compound 2-89] | D or higher |
| CCS(=O)(=O)n1c(-n2cnc(COc3ccc(OC(F)(F)F)cc3)c2)nc2ccccc21 [Compound 1-17] | D or higher |
| CCS(=O)(=O)n1c(-n2cc(C(=O)OC(C)(C)C)c(OC(F)F)n2)nc2ccccc21 [Compound 2-139] | D or higher |
| CCS(=O)(=O)n1c(-n2cc(CCc3ccc(OC)cc3)c(C(F)(F)F)n2)nc2ccccc21 [Compound 2-6] | D or higher |
| CCS(=O)(=O)n1c(-n2cc(C#N)c(C(F)(F)C(F)(F)F)n2)nc2ccccc21 [Compound 2-111] | D or higher |
| CCCOc1nn(-c2nc3ccccc3n2S(=O)(=O)CC)cc1C(=O)OC(C)(C)C [Compound 2-74] | D or higher |
| C#Cc1cn(-c2nc3ccccc3n2S(=O)(=O)CC)nc1C(F)(F)F [Compound 2-110] | D or higher |
| CCS(=O)(=O)n1c(-n2cc(C#N)c(C(=O)OC(C)(C)C)n2)nc2ccccc21 [Compound 2-108] | D or higher |
| CCCCOc1nn(-c2nc3ccccc3n2S(=O)(=O)CC)cc1Br [Compound 2-37] | D or higher |
| CCS(=O)(=O)n1c(-n2cc(/C=C/C(=O)OCc3ccc(C(F)(F)F)cc3)c(C(F)(F)F)n2)nc2ccccc21 [Compound 2-115] | D or higher |
| CCS(=O)(=O)n1c(-n2cc([S+]([O-])C(C)C)c(C(F)(F)F)n2)nc2ccccc21 (stereo not drawn) [Compound 2-55] | D or higher |

— US12389911B2, “Benzimidazole compound or salt thereof, agricultural and horticultural insecticidal and acaricidal agent containing said compound, and method for using same” (NIHON NOHYAKU CO., LTD., priority 2019, dated 2025)
